# PubChem BioAssay (NCI)
#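 GI50: concentration for 50% inhibition of growth.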
# Tested on: HL-60(TB) leukemia
# Assay: NCI anticancer screen, dose series, 384-well format
smiles,measurement,value
CNNCc1ccc(C(=O)NC(C)C)cc1,GI50,12.2 µM
